Converted amounts (≈) assume the structure as drawn. Like-named read-outs stand apart in the source and are kept apart here.
Assay: Solubility test of ivacaftor in solvents and acetone/water mixtures at 25° C.
Type: physicochemical
Conditions: organic solvent or mixture
Experimental: “Solvent” refers to a liquid substance capable of dissolving ivacaftor at about 50° C. to about 60° C. The term “anti-solvent” refers to a liquid substance which is not capable of dissolving ivacaftor at about 20° C. to about 30° C. More particularly, solvents and anti-solvents suitable for crystalline forms of ivacaftor are selected by solubility test, such as the Tables 1A, […], and 1C below, taking into consideration of advantages provided by the convenience and efficiency of process operation, the use of more environmentally friendly solvents, mild crystallization conditions, and others.

## CC(C)(C)c1cc(C(C)(C)C)c(NC(=O)c2c[nH]c3ccccc3c2=O)cc1O [ivacaftor]
N,N-dimethylformamide, N,N-dimethylformamide, 25° C., read-out: Solubility
  solubility: 109 mg/mL (≈ 277 mM)
acetone, Acetone, 25° C., read-out: Solubility
  solubility: 27.9 mg/mL (≈ 71 mM)
acetone/water, 0% water in acetone, 25° C., read-out: Solubility in acetone/water
  solubility: 27.9 mg/mL (≈ 71 mM)
acetone/water, 2% water in acetone, 25° C., read-out: Solubility in acetone/water
  solubility: 27.9 mg/mL (≈ 71 mM)
acetone/water, 5% water in acetone, 25° C., read-out: Solubility in acetone/water
  solubility: 41.4 mg/mL (≈ 106 mM)
acetone/water, 8% water in acetone, 25° C. (Table 1C), read-out: Solubility in acetone/water
  solubility: 41.2 mg/mL (≈ 105 mM)
acetone/water, 10% water in acetone, 25° C., read-out: Solubility in acetone/water
  solubility: 47.1 mg/mL (≈ 120 mM)
acetone/water, 15% water in acetone, 25° C., read-out: Solubility in acetone/water
  solubility: 43.3 mg/mL (≈ 110 mM)
acetone/water, 30% water in acetone, 25° C., read-out: Solubility in acetone/water
  solubility: 11 mg/mL (≈ 28 mM)
acetone/water, 50% water in acetone, 25° C., read-out: Solubility in acetone/water
  solubility: 0.34 mg/mL (≈ 0.866 mM)
acetonitrile, Acetonitrile, 25° C., read-out: Solubility
  solubility: 1.78 mg/mL (≈ 4.54 mM)
cyclohexane, Cyclohexane, 25° C., read-out: Solubility
  solubility: 0.34 mg/mL (≈ 0.866 mM)
Dimethyl sulfoxide, Dimethyl sulfoxide, 25° C., read-out: Solubility
  solubility: 375 mg/mL (≈ 955 mM)
ethanol, Ethanol, 25° C., read-out: Solubility
  solubility: 4.5 mg/mL (≈ 11.5 mM)
Ethyl acetate, Ethyl acetate, 25° C., read-out: Solubility
  solubility: 16.9 mg/mL (≈ 43.1 mM)
isopropanol, Isopropanol, 25° C., read-out: Solubility
  solubility: 2.87 mg/mL (≈ 7.31 mM)
methanol, Methanol, 25° C., read-out: Solubility
  solubility: 1.98 mg/mL (≈ 5.04 mM)
Methyl ethyl ketone, Methyl ethyl ketone, 25° C., read-out: Solubility
  solubility: 44.7 mg/mL (≈ 114 mM)
n-heptane, n-Heptane, 25° C., read-out: Solubility
  solubility: 0.62 mg/mL (≈ 1.58 mM)
tetrahydrofuran, Tetrahydrofuran, 25° C., read-out: Solubility
  solubility: 26.6 mg/mL (≈ 67.6 mM)
